Assay results taken from ChEMBL document CHEMBL1153498, “Aerobic oxidation of indolomorphinan without the 4,5-epoxy bridge and subsequent rearrangement of the oxidation product to spiroindolinonyl-C-normorphinan derivative” (Bioorg Med Chem, 2009).

Columns and labels:
[1] = Displacement of [3H]NTI from Hartley guinea pig delta opioid receptor by liquid scintillation counter; parameters: species or system Cavia porcellus
[2] = target: Kappa-type opioid receptor (Cavia porcellus, UniProt P41144); assay: Displacement of […] from Hartley guinea pig kappa opioid receptor by liquid scintillation counter
Chain of Kappa-type opioid receptor (P41144 whole entry): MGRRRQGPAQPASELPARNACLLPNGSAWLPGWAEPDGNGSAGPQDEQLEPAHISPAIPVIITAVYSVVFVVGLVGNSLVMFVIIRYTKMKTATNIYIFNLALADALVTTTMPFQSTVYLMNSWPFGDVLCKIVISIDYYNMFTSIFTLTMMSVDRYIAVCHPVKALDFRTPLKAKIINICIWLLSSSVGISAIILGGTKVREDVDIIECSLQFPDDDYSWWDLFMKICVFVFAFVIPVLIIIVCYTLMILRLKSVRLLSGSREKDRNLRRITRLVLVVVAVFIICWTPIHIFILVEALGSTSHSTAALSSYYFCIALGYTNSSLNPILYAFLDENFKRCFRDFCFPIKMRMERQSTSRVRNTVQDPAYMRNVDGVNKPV

Mu-type opioid receptor = Mu-type opioid receptor (Cavia porcellus, UniProt P97266); assay: Displacement of [3H]DAMGO from Hartley guinea pig mu opioid receptor by liquid scintillation counter
Chain of Mu-type opioid receptor (P97266 whole entry): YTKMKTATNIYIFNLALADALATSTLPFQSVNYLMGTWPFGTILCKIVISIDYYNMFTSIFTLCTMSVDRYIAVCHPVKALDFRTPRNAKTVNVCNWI

| Structure (SMILES) | Ki [1] | Ki [2] | Ki (Mu-type opioid receptor) |
| --- | --- | --- | --- |
| O=C1c2ccccc2N[C@@]12C[C@]13CCN(CC4CC4)[C@H](Cc4ccc(O)cc41)[C@]3(O)C2 | 2.9 nM | 13.4 nM | 0.75 nM |
| CN1CC[C@]23c4c5ccc(O)c4O[C@H]2C(=O)C2(Cc4ccccc4C2)C[C@@]3(O)[C@H]1C5 [SPIROINDANYLOXYMORPHONE] | 1.4 nM | – | – |
